Laboratory results: paper PMC4004266, “Understanding the Structural Requirements for Activators of the Kef Bacterial Potassium Efflux System” (Biochemistry, 2014)
Where “and” joins values, the source holds several entries; their conditions need not be identical. Equal entries are not always repeated. Entries after “also recorded” stand apart in the source; their conditions may differ.

Key:
SdKef = assay: Whole cell potassium efflux assay; assay type: cell-based, Shewanella denitrificans OS217; settings: for K+ efflux (activation of Kef): E. coli MJF335 transformed with wild-type SdKef, grown with GSH, electrophile 0.5 mM
Protocol: Potassium efflux experiments were performed as described previously.[7] Potassium efflux was measured, using an ion selective potassium electrode (ELIT 8031, Nico2000) and a lithium acetate reference electrode (ELIT 003n) with a four-channel ion analyzer (ELIT4), in 2 s intervals. Freshly transformed cells [either E. coli MJF335 cells lacking KefB, KefC, and GshA or MJF645 cells (lacking KefF and KefG in addition to KefB, KefC, and GshA)] were cultured in K115 minimal medium, containing 1 mM GSH, at 37 °C to an OD650 of ∼0.8–1.[11] The cells were filtered and washed with K10 buffer before being suspended in 5 mL of potassium-free K0 buffer. The cells were added to 30 mL of K0 medium in a stirred vessel held at 37 °C with equilibrated electrodes inserted. After 5 min, the electrophile was added to a final concentration of 0.5 mM [except for methylglyoxal (MG), which was added at a concentration of 0.8 mM[6]]. Rate constants were obtained by fitting exponentials to the change in potassium concentration after addition of the electrophile using Origin version 8.0 (Originlab).[7]

SdKefQCTD [1] = molecular target: T1, SdKefQCTD (Shewanella denitrificans, UniProt Q12SB3); assay: Qualitative fluorescence competition assay with DNGSH (FB:FL ratio); assay type: binding, Shewanella denitrificans OS217; settings: 1 mM competing ligand, 6 μM SdKefQCTD, 5 μM DNGSH, 525 nm
T1 sequence (Q12SB3 entry or part of it): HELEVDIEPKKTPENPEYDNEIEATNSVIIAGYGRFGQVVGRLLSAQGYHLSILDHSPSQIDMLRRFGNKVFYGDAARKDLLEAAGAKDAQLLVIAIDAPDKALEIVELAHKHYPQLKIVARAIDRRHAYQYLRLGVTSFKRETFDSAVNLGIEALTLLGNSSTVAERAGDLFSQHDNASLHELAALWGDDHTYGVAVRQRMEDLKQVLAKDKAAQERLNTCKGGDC

SdKefQCTD Q419K mutant = assay: DNGSH titration to Q419K mutant (background binding), emission peak; set-up: species or system Shewanella denitrificans OS217; settings: titration of DNGSH to 7 μM SdKefQCTD Q419K
SdKefQCTD [2] = molecular target: T1, SdKefQCTD; assay: Steady state fluorescence anisotropy titration of DNGSH; assay type: binding, Shewanella denitrificans OS217
Protocol: (§1) Measurements were performed in buffer C, using a 100 μL cuvette with 3 mm excitation and emission path lengths (Hellma GmbH & Co.) at 20 °C and an Edinburgh Instruments FLS920 spectrometer. Samples containing SdKefQCTD and DNGSH were excited at 340 nm, and emission spectra were measured from 395 to 670 nm. The steady state fluorescence anisotropy was measured with excitation at 340 nm and emission between 540 and 560 nm. Competition experiments were performed using samples pretreated with excess DNGSH, at a 2× protein concentration, and titrated with the ligand under study.
The data were fit using a standard saturation isotherm (see the Supporting Information for further information). For DNGSH fluorescence, λL was measured directly and found to be 572.5 nm. […]
(§2) Analysis of ligand binding by fluorescence spectroscopy. […]
(§3) The conservation of mass for SdKefQCTD is given by n[M]0 = [M] + [ML] where the total concentration of SdKefQCTD subunits is [M]0, n is the number of active binding sites per M, [L]0 is the total concentration of ligand and the concentration of free ligand is [L]. […] If these expressions are substituted into equation 1, a quadratic equation for the protein-ligand complex [ML] is obtained that can be solved for [ML] and expressed as the fraction of bound ligand, fB (equation 2). […]
Two fluorescence parameters were used to obtain fB from experimental data. […]

SdKefQCTD [3] = molecular target: T1, SdKefQCTD; assay: Isothermal titration calorimetry (ITC); assay type: binding, Shewanella denitrificans OS217; settings: for no. of sites (n): sites per subunit
SdKefQCTD [4] = molecular target: T1, SdKefQCTD; assay: Direct titration of DNGSH, fluorescence emission peak position (λmax); assay type: binding, Shewanella denitrificans OS217
Protocol: as §1
The data were fit using a standard saturation isotherm (see the Supporting Information for further information). For DNGSH fluorescence, λL was measured directly and found to be 572.5 nm. Inverse titrations with high SdKefQCTD concentrations allowed a good estimation of the emission maximum for the bound form (λML) as 530 nm with a quantum yield (Q) of 4. These three parameters were kept fixed during the fitting while Kd and n were optimized. […]
as §2, §3
Two fluorescence parameters were used to obtain fB from experimental data. The peak position in the emission spectrum, λmax, was obtained by fitting a skewed Gaussian to the experimental spectra as described earlier (1). λmax was used as it was less easily disturbed than fluorescence intensity. Secondly, steady state fluorescence anisotropy, robs, was used. […]
sums depending on the fluorescence intensity of the bound and free ligand, IML and […]

SdKefQCTD [5] = molecular target: T1, SdKefQCTD; assay: Quantitative fluorescence competition experiment using DNGSH as probe (emission peak); assay type: binding, Shewanella denitrificans OS217; settings: for no. of sites (n): competition with DNGSH, sites per subunit
SdKefQCTD [6] = molecular target: T1, SdKefQCTD; assay: Differential scanning fluorimetry (DSF); assay type: binding, Shewanella denitrificans OS217; settings: 1 mM ligand, relative to protein alone
[7] = molecular target: SdKefQCTD (soluble construct of the cytosolic regulatory domain of Kef from Shewanella denitrificans OS217, including the Q-linker) (Shewanella denitrificans OS217); assay: static multiangle light scattering; purified SdKefQCTD in solution; unpublished observations of the authors; 52.0 ± 2.5 kDa particles against 26.4 kDa per monomer
[8] = emission peak, competition with DNGSH (Kd 6 μM used for DNGSH)
[9] = ITC, 25 °C, one-site model, read-out: Kd

## C=CC(=O)CCCCC [Compound 22, 1-octen-3-one]
SdKef
  K+ efflux (activation of Kef): less effective at causing K^+ release; also recorded: causes little K^+ efflux

## N[C@@H](CCC(=O)N[C@@H](CSC1CC(=O)CC1=O)C(=O)NCC(=O)O)C(=O)O (stereo partly shown) [Compound 8]
SdKefQCTD [1]
  DNGSHbound:DNGSHligand ratio of fluorescence (FB:FL), Kef binding: reduced binding affinity for Kef

## CN(C)c1cccc2c(S(=O)(=O)NCCCSC[C@H](NC(=O)CC[C@H](N)C(=O)O)C(=O)NCC(=O)O)cccc12 [DNGSH, S-{[5-(dimethylamino)naphthalen-1-yl]sulfonylaminopropyl} glutathione]
SdKefQCTD Q419K mutant
  binding to Q419K mutant: unable to bind
SdKefQCTD [2]
  Kd: 8 ± 2 µM
SdKefQCTD [2]; fluorescence anisotropy, sites per subunit
  no. of sites (n): 1.1 ± 0.8
SdKefQCTD [3]
  Kd: 19 ± 6 µM
SdKefQCTD [3]; ITC
  no. of sites (n): 0.7 ± 0.1 and 0.7 ± 0.2
SdKefQCTD [4]
  Kd: 6 ± 2 µM
SdKefQCTD [4]; DNGSH binding
  Hill coefficient (nH): 1
SdKefQCTD [4]; emission peak, active binding sites per subunit
  no. of sites (n): 0.6 ± 0.2

## O=C1C=CC(=O)N1Cc1ccccc1 [Compound 16]
SdKef
  K+ efflux (activation of Kef): caused significant K^+ release

## CCCCCC(=O)CCSC[C@H](NC(=O)CC[C@H](N)C(=O)O)C(=O)NCC(=O)O [Compound 12]
SdKefQCTD [5]; [8]
  Kd: 4.4 ± 0.5 µM
SdKefQCTD [5]; emission peak
  no. of sites (n): 0.81 ± 0.05

## N[C@@H](CCC(=O)N[C@@H](CS)C(=O)NCC(=O)O)C(=O)O [GSH, glutathione, reference compound]
SdKefQCTD [5]
  Kd: 900 ± 200 µM
SdKefQCTD [5]; emission peak
  no. of sites (n): 0.83 ± 0.04
SdKefQCTD [6]
  change in protein melting temperature (ΔTm): negligible change
SdKefQCTD [1]
  DNGSHbound:DNGSHligand ratio of fluorescence (FB:FL), Kef binding: low FB:FL ratios
SdKefQCTD [3]; could not be analyzed, data not shown
  ITC signal on titration: Only small signals

## CCN1C(=O)C=CC1=O [NEM, N-ethylmaleimide]
SdKef; SdKef expressed in E. coli strain lacking KefFC and KefGB (MJF645), after addition of electrophile
  rate constant for K+ efflux: high rate constant for K^+ efflux

## CCN1C(=O)CC(SCC(NC(=O)CCC(N)C(=O)O)C(=O)NCC(=O)O)C1=O (stereo not shown) [ESG, N-ethylsuccinimido-S-glutathione, reference compound]
SdKefQCTD [5]; [8]
  Kd: 12 ± 3 µM
SdKefQCTD [5]; emission peak
  no. of sites (n): 0.7 ± 0.2
SdKefQCTD [1]
  DNGSHbound:DNGSHligand ratio of fluorescence (FB:FL), Kef binding: high FB:FL ratios
SdKefQCTD [3]; [9]
  Kd: 23 ± 4 µM
SdKefQCTD [3]; ITC
  no. of sites (n): 0.38 ± 0.05

## SdKefQCTD (soluble construct of the cytosolic regulatory domain of Kef from Shewanella denitrificans OS217, including the Q-linker) (domain or fragment)
[7]
  stoichiometry N: 2 subunits

## O=C1C=CC(=O)N1C1CCCCC1 [Compound 17, N-cyclohexylmaleimide]
SdKef
  K+ efflux (activation of Kef): causes rapid K^+ efflux

## CC(C)(C)N1C(=O)CC(SCC(NC(=O)CCC(N)C(=O)O)C(=O)NCC(=O)O)C1=O (stereo not shown) [Compound 5, N-tert-butylsuccinimido-S-glutathione]
SdKefQCTD [5]; [8]
  Kd: 0.4 ± 0.2 µM
SdKefQCTD [5]; emission peak
  no. of sites (n): 0.7 ± 0.2
SdKefQCTD [6]
  change in protein melting temperature (ΔTm): greatest ΔTm
SdKefQCTD [1]
  DNGSHbound:DNGSHligand ratio of fluorescence (FB:FL), Kef binding: greatest Kef affinity
SdKefQCTD [3]; [9]
  Kd: 6.7 ± 0.27 µM
SdKefQCTD [3]; ITC
  no. of sites (n): 0.41 ± 0.04

## N[C@@H](CCC(=O)N[C@@H](CSC1CCCC1=O)C(=O)NCC(=O)O)C(=O)O (stereo partly shown) [Compound 9]
SdKef
  K+ efflux (activation of Kef): no activation of K^+ efflux
SdKefQCTD [1]
  DNGSHbound:DNGSHligand ratio of fluorescence (FB:FL), Kef binding: reduced binding affinity for Kef
